Holding throughout (type): biochemical
The target in assay [1] is T1, human MT1-MMP/MMP-14 (catalytic domain) (Homo sapiens, UniProt P50281).
T1 construct: human MT1-MMP/MMP-14 (catalytic domain); purchased Calbiochem (San Diego, CA, USA)
The assay can be described thus: Inhibition of MMP-14, fluorescence quenched peptide substrate McaPLGL(Dpa)AR-NH2. The conditions noted are these: substrate McaPLGL(Dpa)AR-NH2 4 µM; 30 min pre-incubation at room temperature; calculated from IC50; read-out: Ki ± s.d. MMP-14. As for the experimental part:
(§1) McaPLGL(Dpa)AR-NH2 was used as a substrate for MMP-9 and MMP-14, while McaRPPGFSAFK(Dnp)-OH was used as substrate for ALN, PLN and TLN. The reaction velocities/initial rates (v) were determined at 37 °C, at an excitation wavelength of 320 nm and an emission wavelength of 405 nm with a slit width of 10 nm using either a Perkin Elmer LS 50 Luminescence spectrometer and the FL WinLab Software Package (Perkin Elmer) or a Clario Star microplate reader (CLARIOstar® BMG LABTECH).
(§2) The test compounds were dissolved in 100% DMSO giving a concentration of 10 mM. A fixed substrate concentration of 4.0 µM in a total volume of 100 µL 0.1 M Hepes pH 7.5, 10 mM CaCl2, 0.005% Brij-35 and 1.0% DMSO, were used in all assays, except for ALN where the substrate concentration was 5.0 µM. The fixed enzyme concentrations were as follows; 0.05 nM MMP-9, 1.0 nM MMP-14, 1.4 nM ALN, 0.5 nM PLN and 0.21 nM TLN. Time-dependent inhibitory experiments without and with 100 μM of testing compounds were performed as follows. Compounds were either pre-incubated with the proteases for 15, 30 and 45 min at room temperature and the enzymatic reaction was started by adding the substrate, or not pre-incubated, i.e., the reaction was started by adding the protease to the mixture of substrate and compound. Control tests without compound present were performed in the same way. The reaction was followed for 30 min at 37 °C.
(§3) Enzymes with and without inhibitor were pre-incubated for 30 min at room temperature, and initial rate assays were performed as described above. Assays were performed using a Clario Star microplate reader (CLARIOstar® BMG LABTECH). The IC50 values were calculated in Graph Pad Prism 5 using Equation (1):(1) vi/v0=1/(1+10^(pIC50−pI)) where vi is the enzyme activity in the presence of inhibitor, v0 the activity in the absence of inhibitor, pI = −log [Inhibitor] in M and pIC50 = −log IC50 in M. All experiments were performed in at least triplicate.

Assay [2] addresses T2, recombinant human MMP-9 (Homo sapiens, UniProt P14780).
T2 construct: made in house; host or cells: Sf9 insect cells
The assay can be described thus: Inhibition of MMP-9, fluorescence quenched peptide substrate McaPLGL(Dpa)AR-NH2. The conditions noted are these: substrate McaPLGL(Dpa)AR-NH2 4 µM; 30 min pre-incubation at room temperature; calculated from IC50; read-out: Ki ± s.d. MMP-9. On the procedure: The expression and purification of recombinant human full-length proMMP-9 (rpMMP-9) from Sf9 insect cells were performed as described previously. The amount of proMMP-9 was estimated spectrophotometrically at 280 nm using ε280 nm = 114.36 mM^−1 cm^−1 [48]. Activation of the recombinant proMMP-9 was performed with APMA (auto-activation) as described previously. The amount of active MMP-9 was determined by active site titration using galardin also described previously.
as §1, §2, §3

Assay [3] addresses T3, pseudolysin (PLN) (Pseudomonas aeruginosa, UniProt P14756).
T3 construct: purchased Calbiochem (San Diego, CA, USA)
In words: Inhibition of pseudolysin (PLN), substrate McaRPPGFSAFK(Dnp)-OH. As for the experimental part:
as §1, §2, §3

The structures appear in SMILES notation.

For orientation: Ki means the equilibrium dissociation constant of an inhibitor or competing ligand from its target.

T3 sequence (P14756 198-498): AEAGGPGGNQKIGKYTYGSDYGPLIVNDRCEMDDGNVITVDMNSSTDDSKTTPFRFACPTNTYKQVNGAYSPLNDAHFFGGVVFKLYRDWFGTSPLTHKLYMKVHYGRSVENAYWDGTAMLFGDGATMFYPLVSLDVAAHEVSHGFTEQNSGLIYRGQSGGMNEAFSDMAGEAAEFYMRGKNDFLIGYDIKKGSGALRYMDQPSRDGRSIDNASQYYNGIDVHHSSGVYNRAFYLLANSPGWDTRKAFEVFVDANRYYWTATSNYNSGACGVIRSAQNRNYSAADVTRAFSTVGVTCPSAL
T2 sequence (P14780 107-707 limits assumed): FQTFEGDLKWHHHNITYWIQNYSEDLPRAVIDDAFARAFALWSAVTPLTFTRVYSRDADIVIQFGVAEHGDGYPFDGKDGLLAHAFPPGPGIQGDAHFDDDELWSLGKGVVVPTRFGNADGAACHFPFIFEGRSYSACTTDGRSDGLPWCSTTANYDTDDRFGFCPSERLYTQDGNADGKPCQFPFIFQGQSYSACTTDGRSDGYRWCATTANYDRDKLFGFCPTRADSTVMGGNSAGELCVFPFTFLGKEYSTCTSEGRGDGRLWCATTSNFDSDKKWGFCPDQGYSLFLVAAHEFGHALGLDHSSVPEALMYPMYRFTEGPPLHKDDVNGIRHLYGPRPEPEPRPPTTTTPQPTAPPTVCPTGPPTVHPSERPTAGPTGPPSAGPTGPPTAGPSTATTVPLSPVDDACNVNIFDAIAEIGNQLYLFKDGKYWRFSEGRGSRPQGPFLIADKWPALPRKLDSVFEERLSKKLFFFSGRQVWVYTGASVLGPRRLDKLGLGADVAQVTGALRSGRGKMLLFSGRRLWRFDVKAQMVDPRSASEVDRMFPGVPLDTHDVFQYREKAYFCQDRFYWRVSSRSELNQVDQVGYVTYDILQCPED

For `c1ccc(CN(Cc2ccccn2)Cc2ccccn2)nc1` [TPA, tri(2-pyridinemethyl)amine, reference compound], the Ki in assay [1] was 1.2 ± 0.1 µM; in assay [2], 15 ± 4 µM; in assay [3] it was 5 ± 2 µM.

The values above are taken from publication PMC8746695, “Zinc-Chelating Compounds as Inhibitors of Human and Bacterial Zinc Metalloproteases” (Molecules, 2021).
